Assay: Surface tension of SDS solution after repeated additions of mesoporous MCM particles (surfactant trapping)
Type: physicochemical
Settings: pure SDS solution (8.2 mM), before addition of MCM particles
Method: Anionic mesoporous nanoparticles (MCM) were suspended into water, wetted, and separated from free water by centrifugation. Pure sodium dodecyl sulphate (SDS) solution (8.2 mM) provides a starting surface tension of about 36.5 mN/m. Per 1 g of MCM particles, 15 mL of SDS is added, resulting in an increase of the surface tension to 45 mN/m. Second, third, and fourth additions result in 57.5 mN/m, 66.8 mN/m, and 70.5 mN/m, respectively. After four mesoporous particle additions, the pure water value is already approached. This is illustrated in FIG. 1. Such non-limiting methods have been unexpectedly discovered to be useful for reliably and predictably preparing a stable nanoparticle suspension of a poorly soluble active ingredient. Cationic mesoporous nanoparticles (MCM) are suspended in water, wetted, and separated from free water by centrifugation. Pure sodium dodecyl sulphate (SDS) solution (8.2 mM) provides a starting surface tension of about 36.5 mN/m. Per 1 g of MCM particles, 15 mL of SDS is added, resulting in an increase of the surface tension to 40 mN/m. Second and third additions result in 54.0 mN/m and 70.0 mN/m, respectively. After three mesoporous particle additions, the pure water value is already approached. This is illustrated in FIG. 2. […]

starting surface tension: about 36.5 mN/m
Compound: CCCCCCCCCCCCOS(=O)(=O)[O-].[Na+] [sodium dodecyl sulphate (SDS), sodium dodecyl sulphate]

From patent US20170252446A1, “USE OF MESO- AND NANOPOROUS MATERIAL FOR SURFACTANT TRAPPING IN NANOPARTICLE SUSPENSIONS” (Therakine BioDelivery GmbH, priority 2014, published 2017)
